Results taken from patent publication US12109284B2, “Compositions comprising fluoride and calcium and method for preparing them” (DENTHERAPY LTD, priority 2016, dated 2024).

Columns and labels:
[1] = Microindentation cycling re-mineralisation model (Example 4); parameters: species or system human
Procedure: Citric acid eroded human enamel specimens were placed into a cycling re-mineralisation model where they were cycled between a treatment, artificial saliva and citric acid five times a day over five days. Three different treatments were tested and were: 1. 2% OPN formulation containing 500 ppm fluoride. 2. 500 ppm fluoride solution. 3. Deionised water. At the end of each of the five days the micro hardness of the enamel was measured by Vickers microindentation to determine the extent of the re-mineralisation of the enamel lesions.
The microhardness of the enamel was determined by indentation using a Vickers diamond-tip indenter. Each hardness value was determined from the average of ten individual measurements made centrally on each enamel specimen using 1.9N force over an indent time of 20 seconds. At the start of each set of measurements a calibration check was performed using a standard metal block to ensure the reproducibility of microhardness was within 3% of the test block micro hardness.

[2] = cited from earlier work; for Buffer range: pH

| Molecule | Trend in remineralisation (microhardness ranking) ([1]; Day 1) | Trend in remineralisation (microhardness ranking) ([1]; Day 2) | Trend in remineralisation (microhardness ranking) ([1]; Day 3) | Trend in remineralisation (microhardness ranking) ([1]; Day 4 (probability 0.06)) | Trend in remineralisation (microhardness ranking) ([1]; Day 5) | Increase in hardness of eroded enamel compared to deionised water ([1]; all time points) | pKa [2] | Buffer range [2] |
| --- | --- | --- | --- | --- | --- | --- | --- | --- |
| [F-].[Na+] [NaF, sodium fluoride] | OPN = NaF > DI water | OPN = NaF > DI water | NaF = OPN > DI water | OPN = NaF > DI water | OPN > NaF > DI water | statistically superior to deionised water |  |  |
| tris(hydroxymethyl)aminomethane |  |  |  |  |  |  | 8.97 | 7.5-9.5 |
| O=C([O-])O.[Na+] [sodium bicarbonate] |  |  |  |  |  |  |  | 5.1-8.0 |
